{
  "source": "patent US20050130252A1",
  "about": "“Stabilized susceptibility tests of aerobic pathogens” (Wyeth Holdings Corporation, priority 2003, published 2005)",
  "assay_in_all_cases": "Broth microdilution MIC",
  "key": {"[1]": {"system": "Enterococcus faecalis GC2267 tet(L) + (M) + (S)", "assay_type": "cell-based", "conditions": "for In Vitro Activity of Tigecycline: Broth, E. faecalis GC2267 tet(L) + (M) + (S); for MIC: Enterococcus faecalis, read-out: Minimal Inhibitory Concentration", "description": "(§1) The process for preparing susceptibility test medium are the following steps: • a. Preparing Mueller Hinton Broth II medium by adding 22 grams powdered media to 1.0 liter distilled water; • b. Autoclaving (121° C., 15 psi, 15 minutes) and cooling the medium; • c. Adding Oxyrase® up to about 10% final volume and keeping at 35-37° C. in an incubator for 30 minutes; • d. Adding about 50 μL to each well of a 96 well microtiter plate; • e. Weighing drug and adding broth to drug to bring up to about (standard 128 μg/ml); • f. Adding 50 μL of the drug to the first column of the titer plate; • g. Diluting by two-fold serial diluting across or down the plate. • h. Preparing a Prompt™ inoculum at 10^8 CFU/ml; • i. Diluting inoculum 1:100 in the broth at […] in 9.9 ml (1:100) is 10^6 colony forming units (CFU) forming the adjusted inoculum; • j. Adding 50 μL of the adjusted inoculum to the wells of the microtiter plate; • k. Incubating the plates at 35-37° C. for 18-22 hours; and • l. Reading, with the unaided eye, the MIC.\n(§2) The in vitro activities of tigecycline and control antibiotics were determined by the broth microdilution method as recommended by the NCCLS. (National Committee for Clinical Laboratory Standards, 2003. Methods for Dilution Antimicrobial Susceptibility Tests for Bacteria That Grow Aerobically; Approved Standards: M7-A6, Sixth ed, vol. 23., National Committee for Clinical Laboratory Standards Wayne, Pa.) was used for the standard procedures. MBH with 5% lysed horse blood was used for testing S. pneumoniae and Haemophilus Test Medium was used for testing H. influenzae. Oxyrase® (Oxyrase Inc, Mansfield, Ohio) was used according to the manufacturer's instructions by adding 1 ml of Oxyrase® to 50 ml of media. Media age studies were performed by preparing MHB in multiple flasks, then storing the media under various conditions. MICs were usually performed in duplicate on each day of testing. Storage under anaerobic conditions was conducted in an anaerobic chamber (MACS MG 1000, Don Whitley Scientific LTD). The pH of the media was determined by pH meter (Corning 430). A comparison of the in vitro activity of tigecycline by agar and broth dilution methodolgies with and without Oxyrase® against clinical isolates is shown in Table 1."}, "[2]": {"system": "S. pyogenes GC4563 (Clinical)", "assay_type": "cell-based", "conditions": "Streptococcus pyogenes, read-out: Minimal Inhibitory Concentration", "description": "as §1, §2"}, "S. aureus ATCC 29213": {"system": "S. aureus ATCC 29213", "assay_type": "cell-based, Staphylococcus aureus", "conditions": "Staphylococcus aureus", "description": "as §1, §2"}},
  "note": "Like-named read-outs stand apart in the source and are kept apart here.",
  "data": [
    {"compound": "CN(C)c1cc(NC(=O)CNC(C)(C)C)c(O)c2c1C[C@H]1C[C@H]3[C@H](N(C)C)C(O)=C(C(N)=O)C(=O)[C@@]3(O)C(O)=C1C2=O", "note": "[Tigecycline, tigecycline]", "values": [
      {"measurement": "In Vitro Activity of Tigecycline", "setting": "[1]; Oxyrase (2%)", "value": 0.12},
      {"measurement": "In Vitro Activity of Tigecycline", "setting": "[1]; no Oxyrase", "value": 0.50},
      {"measurement": "MIC", "setting": "[1]; 336 h", "value": 0.25, "unit": "µg/mL"},
      {"measurement": "MIC", "setting": "[1]", "value": 0.12, "unit": "µg/mL"},
      {"measurement": "MIC", "setting": "[2]; 336 h, Aged Media (two weeks at RT)", "value": 0.03, "unit": "µg/mL"},
      {"measurement": "MIC", "setting": "[2]; Fresh Media", "value": "< 0.008", "unit": "µg/mL"},
      {"measurement": "MIC", "setting": "S. aureus ATCC 29213; ATCC29213, 0 h, S. aureus ATCC 29213, Day 0, Pre-prepared media, room temperature, N = 6", "value": 0.25, "unit": "µg/mL"},
      {"measurement": "MIC", "setting": "S. aureus ATCC 29213; ATCC29213, 0 h, S. aureus ATCC 29213, Day 0, media Fresh from Powder 2° C., N = 6", "value": 0.12, "unit": "µg/mL"},
      {"measurement": "MIC", "setting": "S. aureus ATCC 29213; ATCC29213, 0 h, S. aureus ATCC 29213, Day 0, media Fresh from Powder, room temperature, N = 6", "value": "0.06 to 0.12", "unit": "µg/mL"},
      {"measurement": "MIC", "setting": "S. aureus ATCC 29213; ATCC29213, 24 h, S. aureus ATCC 29213, Day 1, Pre-prepared media, room temperature, N = 6", "value": 0.25, "unit": "µg/mL"},
      {"measurement": "MIC", "setting": "S. aureus ATCC 29213; ATCC29213, 24 h, S. aureus ATCC 29213, Day 1, media Fresh from Powder 2° C., N = 6", "value": 0.12, "unit": "µg/mL"},
      {"measurement": "MIC", "setting": "S. aureus ATCC 29213; ATCC29213, 24 h, S. aureus ATCC 29213, Day 1, media Fresh from Powder, room temperature, N = 6", "value": 0.12, "unit": "µg/mL"},
      {"measurement": "MIC", "setting": "S. aureus ATCC 29213; ATCC29213, 168 h, S. aureus ATCC 29213, Day 7, Pre-prepared media, room temperature, N = 6", "value": 0.25, "unit": "µg/mL"},
      {"measurement": "MIC", "setting": "S. aureus ATCC 29213; ATCC29213, 168 h, S. aureus ATCC 29213, Day 7, media Fresh from Powder 2° C., N = 6", "value": 0.12, "unit": "µg/mL"},
      {"measurement": "MIC", "setting": "S. aureus ATCC 29213; ATCC29213, 168 h, S. aureus ATCC 29213, Day 7, media Fresh from Powder, room temperature, N = 6", "value": 0.25, "unit": "µg/mL"},
      {"measurement": "MIC", "setting": "S. aureus ATCC 29213; ATCC29213, 336 h, S. aureus ATCC 29213, Day 14, Pre-prepared media, room temperature, N = 6", "value": "0.25 to 0.5", "unit": "µg/mL"},
      {"measurement": "MIC", "setting": "S. aureus ATCC 29213; ATCC29213, 336 h, S. aureus ATCC 29213, Day 14, media Fresh from Powder 2° C., N = 6", "value": "0.25 to 0.5", "unit": "µg/mL"},
      {"measurement": "MIC", "setting": "S. aureus ATCC 29213; ATCC29213, 336 h, S. aureus ATCC 29213, Day 14, media Fresh from Powder, room temperature, N = 6", "value": "0.25 to 0.5", "unit": "µg/mL"},
      {"measurement": "MIC", "setting": "S. aureus ATCC 29213; ATCC29213, 336 h, read-out: Minimal Inhibitory Concentration, S. aureus ATCC 29213, media Aged Aerobic (2 weeks at RT under room air), N = 4", "value": "0.25 to 0.5", "unit": "µg/mL"},
      {"measurement": "MIC", "setting": "S. aureus ATCC 29213; ATCC29213, 504 h, S. aureus ATCC 29213, Day 21, Pre-prepared media, room temperature, N = 6", "value": 0.5, "unit": "µg/mL"},
      {"measurement": "MIC", "setting": "S. aureus ATCC 29213; ATCC29213, 504 h, S. aureus ATCC 29213, Day 21, media Fresh from Powder 2° C., N = 6", "value": "0.25 to 0.5", "unit": "µg/mL"},
      {"measurement": "MIC", "setting": "S. aureus ATCC 29213; ATCC29213, 504 h, S. aureus ATCC 29213, Day 21, media Fresh from Powder, room temperature, N = 6", "value": 0.25, "unit": "µg/mL"},
      {"measurement": "MIC", "setting": "S. aureus ATCC 29213; ATCC29213, 672 h, S. aureus ATCC 29213, Day 28, Pre-prepared media, room temperature, N = 6", "value": "0.25 to 0.5", "unit": "µg/mL"},
      {"measurement": "MIC", "setting": "S. aureus ATCC 29213; ATCC29213, 672 h, S. aureus ATCC 29213, Day 28, media Fresh from Powder 2° C., N = 6", "value": 0.25, "unit": "µg/mL"},
      {"measurement": "MIC", "setting": "S. aureus ATCC 29213; ATCC29213, 672 h, S. aureus ATCC 29213, Day 28, media Fresh from Powder, room temperature, N = 6", "value": 0.25, "unit": "µg/mL"},
      {"measurement": "MIC", "setting": "S. aureus ATCC 29213; ATCC29213, read-out: Minimal Inhibitory Concentration (modal value), S. aureus ATCC 29213, Aged Media + Oxyrase, N = 8", "value": 0.25, "unit": "µg/mL"},
      {"measurement": "MIC", "setting": "S. aureus ATCC 29213; ATCC29213, read-out: Minimal Inhibitory Concentration (modal value), S. aureus ATCC 29213, Aged media, N = 8", "value": 0.5, "unit": "µg/mL"},
      {"measurement": "MIC", "setting": "S. aureus ATCC 29213; ATCC29213, read-out: Minimal Inhibitory Concentration (modal value), S. aureus ATCC 29213, Fresh Media + Oxyrase, N = 8", "value": 0.12, "unit": "µg/mL"},
      {"measurement": "MIC", "setting": "S. aureus ATCC 29213; ATCC29213, read-out: Minimal Inhibitory Concentration (modal value), S. aureus ATCC 29213, Freshly Prepared Media, N = 8", "value": 0.25, "unit": "µg/mL"},
      {"measurement": "MIC", "setting": "S. aureus ATCC 29213; ATCC29213, read-out: Minimal Inhibitory Concentration, S. aureus ATCC 29213, Aged Media + Oxyrase, N = 8", "value": "0.12 to 0.25", "unit": "µg/mL"},
      {"measurement": "MIC", "setting": "S. aureus ATCC 29213; ATCC29213, read-out: Minimal Inhibitory Concentration, S. aureus ATCC 29213, Aged media, N = 8", "value": 0.5, "unit": "µg/mL"},
      {"measurement": "MIC", "setting": "S. aureus ATCC 29213; ATCC29213, read-out: Minimal Inhibitory Concentration, S. aureus ATCC 29213, Commercially Prepared media, N = 4", "value": 0.25, "unit": "µg/mL"},
      {"measurement": "MIC", "setting": "S. aureus ATCC 29213; ATCC29213, read-out: Minimal Inhibitory Concentration, S. aureus ATCC 29213, Fresh Media + Oxyrase, N = 8", "value": "0.12 to 0.25", "unit": "µg/mL"},
      {"measurement": "MIC", "setting": "S. aureus ATCC 29213; ATCC29213, read-out: Minimal Inhibitory Concentration, S. aureus ATCC 29213, Freshly Prepared Media, N = 8", "value": 0.25, "unit": "µg/mL"},
      {"measurement": "MIC", "setting": "S. aureus ATCC 29213; ATCC29213, read-out: Minimal Inhibitory Concentration, S. aureus ATCC 29213, Freshly Prepared media, N = 4", "value": "0.06 to 0.12", "unit": "µg/mL"},
      {"measurement": "MIC", "setting": "S. aureus ATCC 29213; ATCC29213, read-out: Minimal Inhibitory Concentration, S. aureus ATCC 29213, MHB II + 0.05% Catalase", "value": 0.5, "unit": "µg/mL"}
    ]}
  ]
}
